Reference: PubChem BioAssay (NCI)
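Tested at 5 concentrations; 48 h exposure; 96-well plates; endpoints linearly interpolated, else capped at highest concentration. GI50 is the concentration that inhibits growth by half. The concentration for full growth arrest is given as TGI.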

Legend:
Test in all cases: NCI anticancer screen, dose series, 48 h
A498 renal = tested on: A498 renal
MDA-MB-435 = tested on: MDA-MB-435
EKVX NSCLC = tested on: EKVX NSCLC
OVCAR-3 ovarian = tested on: OVCAR-3 ovarian
MDA-MB-231 breast = tested on: MDA-MB-231 breast
IGROV1 ovarian = tested on: IGROV1 ovarian
UACC-257 melanoma = tested on: UACC-257 melanoma
SK-MEL-2 melanoma = tested on: SK-MEL-2 melanoma
NCI-H522 lung = tested on: NCI-H522 lung
K-562 leukemia = tested on: K-562 leukemia
CCRF-CEM leukemia = tested on: CCRF-CEM leukemia
SW-620 colon = tested on: SW-620 colon
UO-31 renal = tested on: UO-31 renal
HCC-2998 colon = tested on: HCC-2998 colon
OVCAR-5 ovarian = tested on: OVCAR-5 ovarian
SF-295 CNS = tested on: SF-295 CNS
HCT-15 colon = tested on: HCT-15 colon
LOX IMVI melanoma = tested on: LOX IMVI melanoma
SF-539 CNS = tested on: SF-539 CNS
U251 CNS = tested on: U251 CNS
SNB-75 CNS = tested on: SNB-75 CNS
HT29 colon = tested on: HT29 colon
COLO 205 colon = tested on: COLO 205 colon
HCT-116 colon = tested on: HCT-116 colon
PC-3 prostate = tested on: PC-3 prostate
KM12 colon = tested on: KM12 colon
NCI-H226 lung = tested on: NCI-H226 lung
NCI/ADR-RES ovarian = tested on: NCI/ADR-RES ovarian
TK-10 renal = tested on: TK-10 renal
SN12C renal = tested on: SN12C renal
SK-MEL-5 melanoma = tested on: SK-MEL-5 melanoma
HOP-92 NSCLC = tested on: HOP-92 NSCLC
NCI-H460 lung = tested on: NCI-H460 lung
MCF7 breast = tested on: MCF7 breast
RXF 393 renal = tested on: RXF 393 renal
MOLT-4 leukemia = tested on: MOLT-4 leukemia
HOP-62 NSCLC = tested on: HOP-62 NSCLC
DU-145 prostate = tested on: DU-145 prostate
UACC-62 melanoma = tested on: UACC-62 melanoma
786-0 renal = tested on: 786-0 renal
SF-268 CNS = tested on: SF-268 CNS
HL-60(TB) leukemia = tested on: HL-60(TB) leukemia
SNB-19 CNS = tested on: SNB-19 CNS
OVCAR-8 ovarian = tested on: OVCAR-8 ovarian
SR leukemia = tested on: SR leukemia
A549 NSCLC = tested on: A549 NSCLC
BT-549 breast = tested on: BT-549 breast
SK-MEL-28 melanoma = tested on: SK-MEL-28 melanoma
OVCAR-4 ovarian = tested on: OVCAR-4 ovarian
SK-OV-3 ovarian = tested on: SK-OV-3 ovarian
M14 melanoma = tested on: M14 melanoma
T-47D breast = tested on: T-47D breast
RPMI-8226 leukemia = tested on: RPMI-8226 leukemia
ACHN renal = tested on: ACHN renal
HS 578T breast = tested on: HS 578T breast
CAKI-1 renal = tested on: CAKI-1 renal

Work on `Cc1nc2ccccn2c1NC(=O)NNC(=S)Nc1ccc(Cl)cc1` yielded a GI50 (A498 renal) of over 100 µM, a TGI (A498 renal) of over 100 µM and a GI50 (MDA-MB-435) of over 100 µM. It also gave a TGI (MDA-MB-435) of over 100 µM, a GI50 (EKVX NSCLC) of over 100 µM and a TGI (EKVX NSCLC) of over 100 µM. The GI50 (OVCAR-3 ovarian) was over 100 µM, the TGI (OVCAR-3 ovarian) was over 100 µM and the GI50 (MDA-MB-231 breast) was 67.8 µM. It also gave a TGI (MDA-MB-231 breast) of over 100 µM, a GI50 (IGROV1 ovarian) of over 100 µM and a TGI (IGROV1 ovarian) of over 100 µM. The GI50 (UACC-257 melanoma) was over 100 µM, the TGI (UACC-257 melanoma) was over 100 µM and the GI50 (SK-MEL-2 melanoma) was over 100 µM. For the same compound, the TGI (SK-MEL-2 melanoma) was over 100 µM, the GI50 (NCI-H522 lung) was over 100 µM and the TGI (NCI-H522 lung) was over 100 µM. It also gave a GI50 (K-562 leukemia) of over 100 µM, a TGI (K-562 leukemia) of over 100 µM and a GI50 (CCRF-CEM leukemia) of over 100 µM. The TGI (CCRF-CEM leukemia) was over 100 µM, the GI50 (SW-620 colon) was over 100 µM and the TGI (SW-620 colon) was over 100 µM. For the same compound, the GI50 (UO-31 renal) was over 100 µM, the TGI (UO-31 renal) was over 100 µM and the GI50 (HCC-2998 colon) was over 100 µM. The TGI (HCC-2998 colon) was over 100 µM, the GI50 (OVCAR-5 ovarian) was over 100 µM and the TGI (OVCAR-5 ovarian) was over 100 µM. The GI50 (SF-295 CNS) was over 100 µM, the TGI (SF-295 CNS) was over 100 µM and the GI50 (HCT-15 colon) was over 100 µM. It also gave a TGI (HCT-15 colon) of over 100 µM, a GI50 (LOX IMVI melanoma) of over 100 µM and a TGI (LOX IMVI melanoma) of over 100 µM. The GI50 (SF-539 CNS) was over 100 µM, the TGI (SF-539 CNS) was over 100 µM and the GI50 (U251 CNS) was over 100 µM. It also gave a TGI (U251 CNS) of over 100 µM, a GI50 (SNB-75 CNS) of over 100 µM and a TGI (SNB-75 CNS) of over 100 µM. The GI50 (HT29 colon) was over 100 µM, the TGI (HT29 colon) was over 100 µM and the GI50 (COLO 205 colon) was over 100 µM. It also gave a TGI (COLO 205 colon) of over 100 µM, a GI50 (HCT-116 colon) of over 100 µM and a TGI (HCT-116 colon) of over 100 µM. The GI50 (PC-3 prostate) was over 100 µM, the TGI (PC-3 prostate) was over 100 µM and the GI50 (KM12 colon) was over 100 µM. The TGI (KM12 colon) was over 100 µM, the GI50 (NCI-H226 lung) was over 100 µM and the TGI (NCI-H226 lung) was over 100 µM. It also gave a GI50 (NCI/ADR-RES ovarian) of over 100 µM, a TGI (NCI/ADR-RES ovarian) of over 100 µM and a GI50 (TK-10 renal) of over 100 µM. It also gave a TGI (TK-10 renal) of over 100 µM, a GI50 (SN12C renal) of over 100 µM and a TGI (SN12C renal) of over 100 µM. It also gave a GI50 (SK-MEL-5 melanoma) of over 100 µM, a TGI (SK-MEL-5 melanoma) of over 100 µM and a GI50 (HOP-92 NSCLC) of over 100 µM. The TGI (HOP-92 NSCLC) was over 100 µM, the GI50 (NCI-H460 lung) was over 100 µM and the TGI (NCI-H460 lung) was over 100 µM. The GI50 (MCF7 breast) was over 100 µM, the TGI (MCF7 breast) was over 100 µM and the GI50 (RXF 393 renal) was over 100 µM. It also gave a TGI (RXF 393 renal) of over 100 µM, a GI50 (MOLT-4 leukemia) of over 100 µM and a TGI (MOLT-4 leukemia) of over 100 µM. The GI50 (HOP-62 NSCLC) was over 100 µM, the TGI (HOP-62 NSCLC) was over 100 µM and the GI50 (DU-145 prostate) was over 100 µM. The TGI (DU-145 prostate) was over 100 µM, the GI50 (UACC-62 melanoma) was over 100 µM and the TGI (UACC-62 melanoma) was over 100 µM. For the same compound, the GI50 (786-0 renal) was over 100 µM, the TGI (786-0 renal) was over 100 µM and the GI50 (SF-268 CNS) was over 100 µM. The TGI (SF-268 CNS) was over 100 µM, the GI50 (HL-60(TB) leukemia) was over 100 µM and the TGI (HL-60(TB) leukemia) was over 100 µM. For the same compound, the GI50 (SNB-19 CNS) was over 100 µM, the TGI (SNB-19 CNS) was over 100 µM and the GI50 (OVCAR-8 ovarian) was over 100 µM. The TGI (OVCAR-8 ovarian) was over 100 µM, the GI50 (SR leukemia) was 95.7 µM and the TGI (SR leukemia) was over 100 µM. It also gave a GI50 (A549 NSCLC) of over 100 µM, a TGI (A549 NSCLC) of over 100 µM and a GI50 (BT-549 breast) of over 100 µM. For the same compound, the TGI (BT-549 breast) was over 100 µM, the GI50 (SK-MEL-28 melanoma) was over 100 µM and the TGI (SK-MEL-28 melanoma) was over 100 µM. It also gave a GI50 (OVCAR-4 ovarian) of over 100 µM, a TGI (OVCAR-4 ovarian) of over 100 µM and a GI50 (SK-OV-3 ovarian) of over 100 µM. For the same compound, the TGI (SK-OV-3 ovarian) was over 100 µM, the GI50 (M14 melanoma) was over 100 µM and the TGI (M14 melanoma) was over 100 µM. For the same compound, the GI50 (T-47D breast) was over 100 µM, the TGI (T-47D breast) was over 100 µM and the GI50 (RPMI-8226 leukemia) was over 100 µM. For the same compound, the TGI (RPMI-8226 leukemia) was over 100 µM, the GI50 (ACHN renal) was over 100 µM and the TGI (ACHN renal) was over 100 µM. It also gave a GI50 (HS 578T breast) of over 100 µM, a TGI (HS 578T breast) of over 100 µM and a GI50 (CAKI-1 renal) of over 100 µM. The TGI (CAKI-1 renal) was over 100 µM.
